The values below come from patent US20240343729A1 (priority 2021, published 2024).

The target in experiment [1] is T1, Human PDE10A2 (Homo sapiens (Human), UniProt Q9Y233). The experiment can be described thus: biochemical. The note with it: human PDE10A2 0.25 nM, cGMP 3 μM. Format: biochemical. The procedure:
Semi Log compound dilutions starting at a final concentration of 50 μM were dispensed into a black 384 well plate alongside, DMSO and an Inhibited control using the Echo Acoustic dispenser. […] Data was analysed using a 4-parameter fit.

The target in experiment [2] is T1, Human PDE10A2. The experiment can be described thus: cell-based. The settings on record: Forskolin 10 μM; read-out: cAMP HTRF Assay in HEK 293 rhPDE10A2 cell line (pIC50) (converted). The procedure:
Semi log compound dilutions starting at a final concentration of 10 μM were dispensed into a white 384 well plate, alongside DMSO and an Inhibited control using the Tecan D300e digital dispenser. HEK 293 cells overexpressing recombinant human PDE10A2 were seeded on top of the compounds at 2500 cells/well in a volume 5 μL/well. The plate was incubated at room temperature for 60 minutes. To induce endogenous cAMP, 5 μL/well of Forskolin at a final assay concentration of 10 μM was added to the plate. The plate was incubated at room temperature for a further 45 minutes. cAMP HTRF detection reagents were added, and the plate was incubated for 60 minutes at room temperature. […] Data was analysed using a 4-parameter fit.

T1 sequence (Q9Y233 267-1055): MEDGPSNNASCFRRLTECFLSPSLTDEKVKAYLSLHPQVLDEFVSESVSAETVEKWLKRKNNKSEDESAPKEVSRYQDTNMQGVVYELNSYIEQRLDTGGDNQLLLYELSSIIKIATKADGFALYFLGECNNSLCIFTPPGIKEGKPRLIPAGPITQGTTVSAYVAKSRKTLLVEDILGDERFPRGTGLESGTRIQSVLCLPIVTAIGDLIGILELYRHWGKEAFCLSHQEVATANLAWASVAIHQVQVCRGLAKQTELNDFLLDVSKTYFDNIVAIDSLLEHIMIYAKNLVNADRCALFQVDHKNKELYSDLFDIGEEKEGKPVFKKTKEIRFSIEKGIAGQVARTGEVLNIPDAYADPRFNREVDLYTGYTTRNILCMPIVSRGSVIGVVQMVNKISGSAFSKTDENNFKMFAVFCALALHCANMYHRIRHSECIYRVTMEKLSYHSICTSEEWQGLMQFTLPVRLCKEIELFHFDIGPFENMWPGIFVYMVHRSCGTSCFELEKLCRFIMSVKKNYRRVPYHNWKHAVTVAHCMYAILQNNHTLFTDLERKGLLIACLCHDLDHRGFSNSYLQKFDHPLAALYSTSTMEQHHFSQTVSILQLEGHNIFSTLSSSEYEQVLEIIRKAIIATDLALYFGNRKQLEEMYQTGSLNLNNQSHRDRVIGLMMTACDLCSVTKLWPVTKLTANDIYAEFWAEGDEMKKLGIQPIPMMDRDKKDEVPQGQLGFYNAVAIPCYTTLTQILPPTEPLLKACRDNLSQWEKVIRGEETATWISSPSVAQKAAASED

In the case of `Cn1cc(-c2ccccc2)nc1C#Cc1nc(N2CC3(COC3)C2)c2cnn(C3CCOCC3)c2n1` [Example 6, 6-[6-[2-(1-Methyl-4-phenyl-imidazol-2-yl)ethynyl]-1-tetrahydropyran-4-yl-pyrazolo[3,4-d]pyrimidin-4-yl]-2-oxa-6-azaspiro[3.3]heptane], at Human PDE10A2 [1], the “PDE10A2 Phosphate Sensor Enzyme Assay (pIC50)” value is 9.20. In addition, the IC50 at Human PDE10A2 [2] was 14.8 nM.

Take `C[C@@H]1COCCN1c1nc(C#Cc2nc(-c3ccccc3)cn2C)nc2c1ncn2C` [Example 21, (R)-3-Methyl-4-(9-methyl-2-((1-methyl-4-phenyl-1H-imidazol-2-yl)ethynyl)-9H-purin-6-yl)morpholine]: the “PDE10A2 Phosphate Sensor Enzyme Assay (pIC50)” value on Human PDE10A2 [1] amounted to 10.30. Further, the IC50 on Human PDE10A2 [2] was 0.417 nM.

Turning to `C(#Cc1nc(-c2ccccc2)c[nH]1)c1nc(N2C[C@H]3COC[C@H]3C2)c2cnn(C3COC3)c2n1` [Example 27, (3aR,6aS)-5-(1-(Oxetan-3-yl)-6-((4-phenyl-1H-imidazol-2-yl)ethynyl)-1H-pyrazolo[3,4-d]pyrimidin-4-yl)hexahydro-1H-furo[3,4-c]pyrrole], on Human PDE10A2 [1], the “PDE10A2 Phosphate Sensor Enzyme Assay (pIC50)” value was found to be 9.49. In addition, the IC50 at Human PDE10A2 [2] was 32.4 nM.

On to `C(#Cc1nc(-c2ccccc2)c[nH]1)c1nc(N2C[C@H]3COC[C@H]3C2)c2cnn(CC3CC3)c2n1` [Example 26, (3aR,6aS)-5-(1-(Cyclopropylmethyl)-6-((4-phenyl-1H-imidazol-2-yl)ethynyl)-1H-pyrazolo[3,4-d]pyrimidin-4-yl)hexahydro-1H-furo[3,4-c]pyrrole], for which the “PDE10A2 Phosphate Sensor Enzyme Assay (pIC50)” value on Human PDE10A2 [1] was determined as 9.99.

On to `C[C@@H]1COCCN1c1nc(C#Cc2nc(-c3ccccc3)cn2C)nc2c1CCNC2` [Example 12, (3R)-3-Methyl-4-[2-[2-(1-methyl-4-phenyl-imidazol-2-yl)ethynyl]-5,6,7,8-tetrahydropyrido[3,4-d]pyrimidin-4-yl]morpholine], for which the “PDE10A2 Phosphate Sensor Enzyme Assay (pIC50)” value at Human PDE10A2 [1] worked out at 10.40. On Human PDE10A2 [2], the IC50 was 0.437 nM.

`Cn1cc(-c2ccccc2)nc1C#Cc1nc2c(c(N3CCOCC3)n1)CCNC2` [Example 11, 4-[2-[2-(1-Methyl-4-phenyl-imidazol-2-yl)ethynyl]-5,6,7,8-tetrahydropyrido[3,4-d]pyrimidin-4-yl]morpholine]: the “PDE10A2 Phosphate Sensor Enzyme Assay (pIC50)” value on Human PDE10A2 [1] came out at 9.80. On Human PDE10A2 [2], the IC50 was 1.86 nM.

`Cn1cc(-c2ccccc2)nc1C#Cc1nc2c(c(N3CCOCC3)n1)CCN(CC1CC1)C2` [Example 15, 4-[7-(Cyclopropylmethyl)-2-[2-(1-methyl-4-phenyl-imidazol-2-yl)ethynyl]-6,8-dihydro-5H-pyrido[3,4-d]pyrimidin-4-yl]morpholine]: the “PDE10A2 Phosphate Sensor Enzyme Assay (pIC50)” value on Human PDE10A2 [1] was 8.72. In addition, the IC50 at Human PDE10A2 [2] is 562 nM.

Turning to `Cn1cnc2c(N3C[C@H]4COC[C@H]4C3)nc(C#Cc3nc(-c4ccccc4)c[nH]3)nc21` [Example 28, (3aR,6aS)-5-(9-Methyl-2-((4-phenyl-1H-imidazol-2-yl)ethynyl)-9H-purin-6-yl)hexahydro-1H-furo[3,4-c]pyrrole], the “PDE10A2 Phosphate Sensor Enzyme Assay (pIC50)” value at Human PDE10A2 [1] is 9.34. The IC50 at Human PDE10A2 [2] is 33.9 nM.

Regarding `Cn1cc(-c2cccnc2)nc1C#Cc1nc(N2CC3(COC3)C2)c2ncn(C)c2n1` [Example 2, 6-[9-Methyl-2-[2-[1-methyl-4-(3-pyridyl)imidazol-2-yl]ethynyl]purin-6-yl]-2-oxa-6-azaspiro[3.3]heptane], at Human PDE10A2 [1], the “PDE10A2 Phosphate Sensor Enzyme Assay (pIC50)” value is recorded as 8.62. In addition, on Human PDE10A2 [2], the IC50 is 1.55 nM.

For the compound `C[C@H]1COCCN1c1nc(C#Cc2nc(-c3cccnc3)c[nH]2)nc2c1ncn2C` [Example 33, (S)-3-Methyl-4-(9-methyl-2-((4-(pyridin-3-yl)-1H-imidazol-2-yl)ethynyl)-9H-purin-6-yl)morpholine], the “PDE10A2 Phosphate Sensor Enzyme Assay (pIC50)” value at Human PDE10A2 [1] stood at 8.68. The IC50 on Human PDE10A2 [2] is 17.4 nM.

Turning to `Cn1cc(-c2ccccc2)nc1C#Cc1nc(N2CC3(COC3)C2)c2cnn(C)c2n1` [Example 3, 6-[1-Methyl-6-[2-(1-methyl-4-phenyl-imidazol-2-yl)ethynyl]pyrazolo[3,4-d]pyrimidin-4-yl]-2-oxa-6-azaspiro[3.3]heptane], the “PDE10A2 Phosphate Sensor Enzyme Assay (pIC50)” value on Human PDE10A2 [1] is listed as 9.99. On Human PDE10A2 [2], the IC50 is 0.275 nM.

Turning to `Cn1ncc2c(N3C[C@H]4COC[C@H]4C3)nc(C#Cc3nc(-c4ccccc4)c[nH]3)nc21` [Example 9, (3aS,6aR)-5-[1-methyl-6-[2-(4-phenyl-1H-imidazol-2-yl)ethynyl]pyrazolo[3,4-d]pyrimidin-4-yl]-1,3,3a,4,6,6a-hexahydrofuro[3,4-c]pyrrole], the IC50 is 0.0251 nM on Human PDE10A2 [1] (read-out: PDE10A2 Phosphate Sensor Enzyme Assay (pIC50) (converted)) and 0.603 nM at Human PDE10A2 [2].

With `Cn1cc(-c2ccccc2)nc1C#Cc1nc2c(c(N3CCOCC3)n1)CCN(C1COC1)C2` [Example 14, 4-[2-[2-(1-Methyl-4-phenyl-imidazol-2-yl)ethynyl]-7-(oxetan-3-yl)-6,8-dihydro-5H-pyrido[3,4-d]pyrimidin-4-yl]morpholine], the “PDE10A2 Phosphate Sensor Enzyme Assay (pIC50)” value on Human PDE10A2 [1] is recorded as 9.35. Further, at Human PDE10A2 [2], the IC50 was 1.78 nM.

In the case of `Cn1cc(-c2ccccc2)nc1C#Cc1nc(N2C[C@H]3COC[C@H]3C2)c2cnn(C)c2n1` [Example 23, (3aR,6aS)-5-(1-Methyl-6-((1-methyl-4-phenyl-1H-imidazol-2-yl)ethynyl)-1H-pyrazolo[3,4-d]pyrimidin-4-yl)hexahydro-1H-furo[3,4-c]pyrrole], the “PDE10A2 Phosphate Sensor Enzyme Assay (pIC50)” value at Human PDE10A2 [1] amounted to 10.40. Moreover, the IC50 on Human PDE10A2 [2] is 0.245 nM.

In the case of `CC(C)n1ncc2c(N3C[C@H]4COC[C@H]4C3)nc(C#Cc3nc(-c4ccccc4)cn3C)nc21` [Example 18, (3aR,6aS)-5-(1-isoPropyl-6-((1-methyl-4-phenyl-1H-imidazol-2-yl)ethynyl)-1H-pyrazolo[3,4-d]pyrimidin-4-yl)hexahydro-1H-furo[3,4-c]pyrrole], the “PDE10A2 Phosphate Sensor Enzyme Assay (pIC50)” value at Human PDE10A2 [1] came out at 9.99. Further, on Human PDE10A2 [2], the IC50 was 0.617 nM.

For the compound `Cn1cnc2c(N3CC4(COC4)C3)nc(C#Cc3nc(-c4ccccc4)cn3CC3CCOCC3)nc21` [Example 4, 6-[9-Methyl-2-[2-[4-phenyl-1-(tetrahydropyran-4-ylmethyl)imidazol-2-yl]ethynyl]purin-6-yl]-2-oxa-6-azaspiro[3.3]heptane], at Human PDE10A2 [1], the “PDE10A2 Phosphate Sensor Enzyme Assay (pIC50)” value is 9.00. In addition, the IC50 at Human PDE10A2 [2] was 6.31 nM.

`Cn1cc(-c2ccccc2)nc1C#Cc1nc(N2CCS(=N)(=O)CC2)c2cnn(C)c2n1` [Example 24, 1-Imino-4-(1-methyl-6-((1-methyl-4-phenyl-1H-imidazol-2-yl)ethynyl)-1H-pyrazolo[3,4-d]pyrimidin-4-yl)-1l6-thiomorpholine 1-oxide]: the “PDE10A2 Phosphate Sensor Enzyme Assay (pIC50)” value at Human PDE10A2 [1] was found to be 10.10. In addition, the IC50 at Human PDE10A2 [2] was 1.2 nM.

For `C[C@H]1COCCN1c1nc(C#Cc2nc(-c3ccccc3)cn2C)nc2c1ncn2C` [Example 22, (S)-3-Methyl-4-(9-methyl-2-((1-methyl-4-phenyl-1H-imidazol-2-yl)ethynyl)-9H-purin-6-yl)morpholine], the “PDE10A2 Phosphate Sensor Enzyme Assay (pIC50)” value on Human PDE10A2 [1] was found to be 9.22.

Turning to `CC(C)n1ncc2c(N3C[C@H]4COC[C@H]4C3)nc(C#Cc3nc(-c4ccccc4)c[nH]3)nc21` [Example 25, (3aR,6aS)-5-(1-isoPropyl-6-((4-phenyl-1H-imidazol-2-yl)ethynyl)-1H-pyrazolo[3,4-d]pyrimidin-4-yl)hexahydro-1H-furo[3,4-c]pyrrole], the “PDE10A2 Phosphate Sensor Enzyme Assay (pIC50)” value at Human PDE10A2 [1] stood at 9.95.
